# From ChEMBL document CHEMBL1201862, “PubChem BioAssay data set” (2004)
#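 In this assay, cells in 96-well plates receive the compound at five concentrations for 48 hours. Endpoints are linearly interpolated between the surrounding concentrations. The concentration for 50% growth inhibition is given as GI50.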 Activity calls are given as the source filed them. Rule as the data show it: active = GI50 up to about 1.1 µM and inactive = higher.
# How the values were obtained:
# Assay in all cases: inhibition of tumour cell growth, NCI panel, 48 h
# [1] = test system: CAKI-1
# [2] = test system: DU-145
# [3] = test system: EKVX
# [4] = test system: HCT-116
# [5] = test system: IGROV-1
# [6] = test system: KM12
# [7] = test system: LOX IMVI
# [8] = test system: MCF7
# [9] = test system: MDA-N
# [10] = test system: NCI-H226
# [11] = test system: NCI/ADR-RES
# [12] = test system: OVCAR-3
# [13] = test system: OVCAR-4
# [14] = test system: SF-539
# [15] = test system: SK-MEL-2
# [16] = test system: SK-OV-3
# [17] = test system: SN12C
# [18] = test system: SR
# [19] = test system: UACC-62
# [20] = test system: Hs-578T
Compound,GI50 [1],GI50 [2],GI50 [3],GI50 [4],GI50 [5],GI50 [6],GI50 [7],GI50 [8],GI50 [9],GI50 [10],GI50 [11],GI50 [12],GI50 [13],GI50 [14],GI50 [15],GI50 [16],GI50 [17],GI50 [18],GI50 [19],GI50 [20]
COC(=O)[C@]1(c2cc3ccccc3n2S(=O)(=O)c2ccccc2)CC2CCC1NC2 (stereo partly drawn),15.5 µM (inactive),16.1 µM (inactive),14.2 µM (inactive),13.7 µM (inactive),14 µM (inactive),15.1 µM (inactive),15.6 µM (inactive),13.2 µM (inactive),14.7 µM (inactive),14.6 µM (inactive),16.6 µM (inactive),17 µM (inactive),16.4 µM (inactive),16.4 µM (inactive),16.7 µM (inactive),16.7 µM (inactive),15.7 µM (inactive),< 0.01 µM (active),14.5 µM (inactive),–
CC(C)(CN1CCCCC1)C(/C=C/c1ccc(Cl)c(Cl)c1)=N\NC(=O)N/N=C(/C=C/c1ccc(Cl)c(Cl)c1)C(C)(C)CN1CCCCC1,1.71 µM (inactive),1.85 µM (inactive),1.64 µM (inactive),0.908 µM (active),1.77 µM (inactive),1.63 µM (inactive),1.12 µM (inactive),1.54 µM (inactive),1.42 µM (inactive),2.3 µM (inactive),1.73 µM (inactive),1.56 µM (inactive),1.71 µM (inactive),1.77 µM (inactive),> 10 µM (inactive),1.92 µM (inactive),1.77 µM (inactive),–,1.95 µM (inactive),1.81 µM (inactive)
COC(=O)[C@@H](NC(=O)N(Cc1ccccc1)C[C@H](CC(C)C)NC(=O)[C@@H](NC(=O)OC(C)(C)C)C(C)C)C(C)C,> 100 µM (inactive),> 100 µM (inactive),> 100 µM (inactive),> 100 µM (inactive),–,> 100 µM (inactive),> 100 µM (inactive),–,> 100 µM (inactive),> 100 µM (inactive),> 100 µM (inactive),> 100 µM (inactive),> 100 µM (inactive),> 100 µM (inactive),> 100 µM (inactive),> 100 µM (inactive),–,> 100 µM (inactive),> 100 µM (inactive),88.1 µM (inactive)
O=C(c1ccco1)N(C(=S)OCCOc1ccccc1)c1ccccc1,18.7 µM (inactive),20.3 µM (inactive),22.1 µM (inactive),17.3 µM (inactive),17.7 µM (inactive),19.5 µM (inactive),19.3 µM (inactive),20.7 µM (inactive),18.9 µM (inactive),–,25.7 µM (inactive),16.5 µM (inactive),20 µM (inactive),22.9 µM (inactive),19.6 µM (inactive),21.8 µM (inactive),19.5 µM (inactive),–,16.6 µM (inactive),32.1 µM (inactive)
NC(=O)C1N=NSC1NC(=O)c1ccc([N+](=O)[O-])cc1 (stereo not drawn),63.5 µM (inactive),78.5 µM (inactive),30 µM (inactive),47.5 µM (inactive),22.4 µM (inactive),49.9 µM (inactive),–,43.5 µM (inactive),67.3 µM (inactive),54.8 µM (inactive),36.6 µM (inactive),30.4 µM (inactive),43.3 µM (inactive),–,13.5 µM (inactive),58.9 µM (inactive),47.5 µM (inactive),–,49.4 µM (inactive),75 µM (inactive)
CCc1nc2cc(F)ccc2[nH]c1=O,> 100 µM (inactive),65.5 µM (inactive),2.34 µM (inactive),> 100 µM (inactive),–,> 100 µM (inactive),> 100 µM (inactive),> 100 µM (inactive),> 100 µM (inactive),> 100 µM (inactive),> 100 µM (inactive),> 100 µM (inactive),> 100 µM (inactive),> 100 µM (inactive),> 100 µM (inactive),> 100 µM (inactive),> 100 µM (inactive),–,38.7 µM (inactive),10.4 µM (inactive)
CC(C)[Si](OC12CCC(CC1O)CC2C(=O)O)(C(C)C)C(C)C (stereo not drawn),19.1 µM (inactive),14.2 µM (inactive),–,10.7 µM (inactive),–,12.4 µM (inactive),–,11.3 µM (inactive),17 µM (inactive),12 µM (inactive),13.2 µM (inactive),14.8 µM (inactive),12.6 µM (inactive),27.4 µM (inactive),14.6 µM (inactive),13.9 µM (inactive),21.7 µM (inactive),23.2 µM (inactive),14 µM (inactive),–
CN(C)c1ccc(/C=C(\NC(=O)c2ccccc2)C(=O)Nc2ccccc2C(=O)NCc2ccccc2)cc1,> 100 µM (inactive),> 100 µM (inactive),> 100 µM (inactive),> 100 µM (inactive),> 100 µM (inactive),58.5 µM (inactive),> 100 µM (inactive),> 100 µM (inactive),> 100 µM (inactive),50.8 µM (inactive),43.1 µM (inactive),> 100 µM (inactive),58.2 µM (inactive),66.5 µM (inactive),> 100 µM (inactive),> 100 µM (inactive),> 100 µM (inactive),–,> 100 µM (inactive),> 100 µM (inactive)
COc1cccc(C2SCC(=O)N2c2ccc(-n3c(-c4ccccc4)nc4ccccc4c3=O)cc2)c1OC (stereo not drawn),> 100 µM (inactive),> 100 µM (inactive),> 100 µM (inactive),> 100 µM (inactive),> 100 µM (inactive),> 100 µM (inactive),> 100 µM (inactive),–,> 100 µM (inactive),> 87.9 µM (inactive),> 100 µM (inactive),> 88.7 µM (inactive),> 100 µM (inactive),> 100 µM (inactive),> 100 µM (inactive),> 100 µM (inactive),> 100 µM (inactive),> 100 µM (inactive),> 38.5 µM (inactive),> 100 µM (inactive)
Cc1cc(S(=O)(=O)Nc2nc(N)n[nH]2)c(Cl)cc1Cl,> 10 µM (inactive),> 10 µM (inactive),> 10 µM (inactive),> 10 µM (inactive),> 10 µM (inactive),> 10 µM (inactive),> 10 µM (inactive),–,> 10 µM (inactive),> 10 µM (inactive),> 10 µM (inactive),> 10 µM (inactive),> 10 µM (inactive),> 10 µM (inactive),> 10 µM (inactive),> 10 µM (inactive),> 10 µM (inactive),–,> 10 µM (inactive),> 10 µM (inactive)
Oc1cc(O)c2c(c1)OC(c1ccc(O)c(O)c1)C(O)C2c1c(O)cc(O)c2c1OC(c1ccc(O)c(O)c1)C(O)C2 (stereo not drawn),25.4 µM (inactive),> 100 µM (inactive),> 100 µM (inactive),> 100 µM (inactive),> 100 µM (inactive),46.5 µM (inactive),> 100 µM (inactive),> 100 µM (inactive),> 100 µM (inactive),> 100 µM (inactive),> 100 µM (inactive),> 100 µM (inactive),> 100 µM (inactive),> 100 µM (inactive),> 100 µM (inactive),> 100 µM (inactive),> 100 µM (inactive),–,> 100 µM (inactive),> 100 µM (inactive)
COc1ccc(N(C(=O)OC(C)(C)C)[C@@H]2C(C)=C[C@H]([S@@+]([O-])c3ccc(C)cc3)[C@@H]3C(=O)N(C)C(=O)[C@@H]32)cc1,25.3 µM (inactive),30.2 µM (inactive),2.13 µM (inactive),18.6 µM (inactive),10.7 µM (inactive),11.6 µM (inactive),3.85 µM (inactive),15.2 µM (inactive),18.3 µM (inactive),16.6 µM (inactive),21.5 µM (inactive),27.1 µM (inactive),16.5 µM (inactive),18.4 µM (inactive),18.5 µM (inactive),13.2 µM (inactive),11 µM (inactive),–,18.4 µM (inactive),15.5 µM (inactive)
COc1ccc(-c2c3c(n(C4OC(COC(C)=O)C(OC(C)=O)C(OC(C)=O)C4OC(C)=O)c(=S)c2C#N)CCCC3)cc1 (stereo not drawn),20.5 µM (inactive),44.9 µM (inactive),53 µM (inactive),79.4 µM (inactive),28.8 µM (inactive),> 100 µM (inactive),> 100 µM (inactive),> 100 µM (inactive),91.4 µM (inactive),> 100 µM (inactive),54.1 µM (inactive),19.6 µM (inactive),25.5 µM (inactive),69.5 µM (inactive),16.2 µM (inactive),> 100 µM (inactive),> 100 µM (inactive),> 100 µM (inactive),20 µM (inactive),–
CC(=O)/N=C1\NC(=O)/C(=C/c2ccc(Cl)cc2Cl)N1C,> 100 µM (inactive),60.4 µM (inactive),1.02 µM (active),30.8 µM (inactive),32.6 µM (inactive),> 100 µM (inactive),17.6 µM (inactive),> 100 µM (inactive),> 100 µM (inactive),6.81 µM (inactive),21.7 µM (inactive),96.4 µM (inactive),55.1 µM (inactive),77.4 µM (inactive),> 100 µM (inactive),> 100 µM (inactive),–,–,9.04 µM (inactive),23.1 µM (inactive)
Oc1c(CN2CCOCC2)ccc2cccnc12,5.16 µM (inactive),> 10 µM (inactive),> 10 µM (inactive),6.55 µM (inactive),> 10 µM (inactive),> 10 µM (inactive),> 10 µM (inactive),4.14 µM (inactive),> 10 µM (inactive),> 10 µM (inactive),2.34 µM (inactive),> 10 µM (inactive),> 10 µM (inactive),> 10 µM (inactive),> 10 µM (inactive),> 10 µM (inactive),> 10 µM (inactive),–,–,> 10 µM (inactive)
